# Reference: patent US6355633B1, “Aryl sulfonic acids and derivatives as FSH antagonists” (American Home Products Corporation, priority 1999, dated 2002)
# Target: T1, FSH receptor (Homo sapiens, UniProt P23945)
# T1 sequence (P23945 18-695): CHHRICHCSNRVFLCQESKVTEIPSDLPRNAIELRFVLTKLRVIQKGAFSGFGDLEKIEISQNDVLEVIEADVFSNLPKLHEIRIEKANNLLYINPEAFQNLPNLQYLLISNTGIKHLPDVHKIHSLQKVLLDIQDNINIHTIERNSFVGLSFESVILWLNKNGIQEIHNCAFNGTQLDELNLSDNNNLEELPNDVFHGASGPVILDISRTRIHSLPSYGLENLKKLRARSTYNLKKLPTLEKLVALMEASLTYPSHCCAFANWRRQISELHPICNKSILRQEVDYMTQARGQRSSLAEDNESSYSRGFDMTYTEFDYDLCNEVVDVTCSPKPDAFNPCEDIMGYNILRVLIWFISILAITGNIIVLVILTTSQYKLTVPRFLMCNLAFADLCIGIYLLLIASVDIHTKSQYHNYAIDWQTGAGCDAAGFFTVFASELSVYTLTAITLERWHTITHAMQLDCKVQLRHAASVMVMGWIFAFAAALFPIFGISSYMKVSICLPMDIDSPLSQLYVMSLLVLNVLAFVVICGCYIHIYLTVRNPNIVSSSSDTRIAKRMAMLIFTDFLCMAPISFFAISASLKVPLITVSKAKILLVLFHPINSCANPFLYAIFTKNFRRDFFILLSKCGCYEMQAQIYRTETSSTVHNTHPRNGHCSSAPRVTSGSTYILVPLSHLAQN
# Assay: FSH Receptor Radioligand Membrane Binding Standard Pharmacological Test Procedure
# Design: expressed in transfected cells
# Conditions: [125I]FSH binding to membranes of CHO cells stably transfected with the human FSH receptor
# How it was run: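 Membranes from CHO cells stably expressing human FSH receptor; compounds pre-incubated 15 min at room temperature, then [125I]FSH added (diluted to 200 pM before addition) for 2 h at room temperature in pH 7.2 Tris buffer with protease inhibitors and BSA. Bound radioactivity after filtration counted by gamma counter; non-specific binding defined with unlabelled human FSH.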
row,Molecule,IC50 [nM]
1,"2,2′-[(E)-1,2-Ethenediyl]bis[5-[[4-(methylthio)-3-(4-morpholinylsulfonyl)benzoyl]amino]benzenesulfonic Acid] [Example 30b]",1200
2,COc1ccc(C(=O)Nc2ccc(/C=C/c3ccc(NC(=O)c4ccc(S(C)(=O)=O)cc4)cc3S(=O)(=O)O)c(S(=O)(=O)O)c2)cc1S(=O)(=O)N1CCOCC1 [Example 30g],1600
3,"CS(=O)(=O)c1ccc(C(=O)Nc2ccc(/C=C/c3ccc(NC(=O)c4ccc(S(C)(=O)=O)cc4)cc3S(=O)(=O)O)c(S(=O)(=O)O)c2)cc1 [Example 30q, 2,2′-[(E)-1,2-Ethenediyl]bis[5-[[4-(methylsulfonyl)benzoyl]amino]benzenesulfonic Acid]]",4000
4,"COc1ccc(C(=O)Nc2ccc(/C=C/c3ccc(NC(=O)c4ccc(OC)c(S(=O)(=O)N5CCSCC5)c4)cc3S(=O)(=O)O)c(S(=O)(=O)O)c2)cc1S(=O)(=O)N1CCSCC1 [Example 33d, 2,2′-[(E)-1,2-Ethenediyl]bis[5-[[4-methoxy-3-(4-thiomorpholinylsulfonyl)benzoyl]amino]benzenesulfonic Acid]]",5200
5,"COc1ccc(C(=O)Nc2ccc(/C=C/c3ccc(NC(=O)c4ccc(OC)c(S(=O)(=O)N5CCS(=O)(=O)CC5)c4)cc3S(=O)(=O)O)c(S(=O)(=O)O)c2)cc1S(=O)(=O)N1CCS(=O)(=O)CC1 [Example 30k, 2,2′-[(E)-1,2-Ethenediyl]bis[5-[[3-[(1,1-dioxido-4-thiomorpholinyl)sulfonyl]-4-methoxybenzoyl]amino]benzenesulfonic Acid]]",2000
6,"CCS(=O)(=O)c1ccc(C(=O)Nc2ccc(/C=C/c3ccc(NC(=O)c4ccc(S(=O)(=O)CC)cc4)cc3S(=O)(=O)O)c(S(=O)(=O)O)c2)cc1 [Example 32f, 2,2′-[(E)-1,2-Ethenediyl]bis[5-[[4-(ethylsulfonyl)benzoyl]amino]benzenesulfonic Acid]]",2900
7,"COc1ccc(C(=O)Nc2ccc(CCc3ccc(NC(=O)c4ccc(S(C)(=O)=O)cc4)cc3S(=O)(=O)O)c(S(=O)(=O)O)c2)cc1S(=O)(=O)N1CCOCC1 [Example 43a, 5-[[4-Methoxy-3-(4-morpholinylsulfonyl)benzoyl]amino]-2-[2-[4-[[4-(methylsulfonyl)benzoyl]amino]-2-sulfophenyl]ethyl]benzenesulfonic Acid]",2000
8,"COCCOc1ccc(C(=O)Nc2ccc(/C=C/c3ccc(NC(=O)c4ccc(OCCOC)c(S(=O)(=O)N5CCOCC5)c4)cc3S(=O)(=O)O)c(S(=O)(=O)O)c2)cc1S(=O)(=O)N1CCOCC1 [Example 30t, 2,2′-[(E)-1,2-Ethenediyl]bis[5-[[4-(2-methoxyethoxy)-3-(4-morpholinylsulfony)benzoyl]amino]benzenesulfonic Acid]]",1300
9,"COc1ccc(C(=O)Nc2ccc(/C=C/c3ccc(NC(=O)c4ccc(OC)c(S(=O)(=O)N5CCN(C(C)=O)CC5)c4)cc3S(=O)(=O)O)c(S(=O)(=O)O)c2)cc1S(=O)(=O)N1CCN(C(C)=O)CC1 [Example 34a, 2,2′-[(E)-1,2-Ethenediyl]bis[5-[[3-[(4-acetyl-1-piperazinyl)sulfonyl]-4-methoxybenzoyl]amino]benzenesulfonic Acid]]",3800
10,CSc1ccc(C(=O)Nc2ccc(/C=C/c3ccc(NC(=O)c4ccc(S(C)(=O)=O)c([N+](=O)[O-])c4)cc3S(=O)(=O)O)c(S(=O)(=O)O)c2)cc1S(=O)(=O)N1CCOCC1 [Example 30e],2500
11,"COc1ccc(C(=O)Nc2ccc(/C=C/c3ccc(NC(=O)c4ccc(OC)c(S(=O)(=O)N5CCCC5)c4)cc3S(=O)(=O)O)c(S(=O)(=O)O)c2)cc1S(=O)(=O)N1CCCC1 [Example 33e, 2,2′-[(E)-1,2-Ethenediyl]bis[5-[[4-methoxy-3-(1-pyrrolidinylsulfonyl)benzoyl]amino]benzenesulfonic Acid]]",4300
12,"COCCNS(=O)(=O)c1cc(C(=O)Nc2ccc(/C=C/c3ccc(NC(=O)c4ccc(OC)c(S(=O)(=O)NCCOC)c4)cc3S(=O)(=O)O)c(S(=O)(=O)O)c2)ccc1OC [Example 30m, 2,2′-[(E)-1,2-Ethenediyl]bis[5-[[4-methoxy-3-[[(2-methoxyethyl)amino]sulfonyl]benzoyl]amino]benzenesulfonic Acid]]",2200
13,"CS(=O)(=O)c1ccc(C(=O)Nc2ccc(/C=C/c3ccc(NC(=O)c4ccc(S(C)(=O)=O)c([N+](=O)[O-])c4)cc3S(=O)(=O)O)c(S(=O)(=O)O)c2)cc1[N+](=O)[O-] [Example 30c, 2.2′-[(E)-1,2-Ethenediyl]bis[5-[[(4-methylsulfonyl)-3-(nitro)-benzoyl]amino]benzenesulfonic Acid]]",1600
14,"O=C(Nc1ccc(/C=C/c2ccc(NC(=O)c3ccc(OC4CCOCC4)c(S(=O)(=O)N4CCOCC4)c3)cc2S(=O)(=O)O)c(S(=O)(=O)O)c1)c1ccc(OC2CCOCC2)c(S(=O)(=O)N2CCOCC2)c1 [Example 30r, 2,2′-[(E)-1,2-Ethenediyl]bis[5-[[3-(4-morpholinylsulfonyl)-4-[(tetrahydro-2H-pyran-4-yl)oxy]benzoyl]amino]benzenesulfonic Acid]]",1100
15,"COc1ccc(C(=O)Nc2ccc(/C=C/c3ccc(NC(=O)c4ccc(OC)c(S(=O)(=O)N5CCOCC5)c4)cc3S(=O)(=O)O)c(S(=O)(=O)O)c2)cc1S(=O)(=O)N1CCOCC1 [Example 30s, 2,2′-[(E)-1,2-Ethenediyl]bis[5-[[4-methoxy-3-(4-morpholinylsulfonyl)benzoyl]amino]benzenesulfonic Acid]]",3000
16,"CS(=O)(=O)c1ccc(C(=O)Nc2ccc(/C=C/c3ccc(NC(=O)c4ccc(S(C)(=O)=O)c(S(=O)(=O)N5CCOCC5)c4)cc3S(=O)(=O)O)c(S(=O)(=O)O)c2)cc1S(=O)(=O)N1CCOCC1 [Example 30d, 2,2′-[(E)-1,2-Ethenediyl]bis[5-[[4-(methylsulfonyl)-3-(4-morpholinylsulfonyl)benzoyl]amino]benzenesulfonic Acid]]",1500
17,"COc1ccc(C(=O)Nc2ccc(/C=C/c3ccc(NC(=O)c4ccc(OC)c(S(=O)(=O)N5CCN(C=O)CC5)c4)cc3S(=O)(=O)O)c(S(=O)(=O)O)c2)cc1S(=O)(=O)N1CCN(C=O)CC1 [Example 34b, 2,2′-[(E)-1,2-Ethenediyl]bis[5-[[3-[(4-formyl-1-piperazinyl)sulfonyl]-4-methoxybenzoyl]amino]benzenesulfonic Acid]]",1600
18,"COCCOCCOc1ccc(C(=O)Nc2ccc(/C=C/c3ccc(NC(=O)c4ccc(OCCOCCOC)c(S(=O)(=O)N5CCOCC5)c4)cc3S(=O)(=O)O)c(S(=O)(=O)O)c2)cc1S(=O)(=O)N1CCOCC1 [Example 30a, 2,2′-[(E)-1,2-Ethenediyl]bis[5-[[4-[2-(2-methoxyethoxy)ethoxy]-3-(4-morpholinylsulfonyl)benzoyl]amino]benzenesulfonic Acid]]",1600
19,COCCNS(=O)(=O)c1cc(C(=O)Nc2ccc(/C=C/c3ccc(NC(=O)c4ccc(S(C)(=O)=O)c([N+](=O)[O-])c4)cc3S(=O)(=O)O)c(S(=O)(=O)O)c2)ccc1OC [Example 30f],1900
